# Results taken from patent US11040028B2, “Penicinotam derivative, preparation method and use thereof” (OCEAN UNIVERSITY OF CHINA, priority 2017, dated 2021).
# System: cardiac fibroblast RAT-iCell-C002
# Test: Anti-fibrosis activity test: inhibition of proliferation of cardiac fibroblast RAT-iCell-C002 (CCK-8)
# Assay type: cell-based
# Settings: Cardiac fibroblast, 48 h, RAT-iCell-C002 cells, CCK-8
# Procedure, shortened: (§1)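 48 h compound treatment of fibroblast-type cells seeded at 2×10^4 cells/mL, 37° C, 5% CO2; viability by CCK-8 (2 h, A450). Inhibition rate calculated against blank control, IC50 by curve fitting; pirfenidone served as reference.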
row,Compound,IC50
1,"CCCOCCn1c2c(c(=O)c3ccccc31)C(=O)n1cccc1-2 [Compound 671a, 4-(2-Propoxyethyl)-9H-pyrrolizino[1,2-b]quinoline-9,10(4H)-dione]",0.05 to 5 mM
2,"O=C1c2c(nc3ccccc3c2OCCCN2CCNCC2)-c2cccn21 [Compound 669b, 9-(3-(piperazin-1-yl)propoxy)-10H-pyrrolizino[1,2-b]quinolin-10-one]",0.05 to 5 mM

# Same assay, conditions: Cardiac fibroblast, 48 h, cardiac fibroblast RAT-iCell-C002, CCK-8, 48 hours
row,Compound,IC50
1,"O=C1c2c(nc3ccccc3c2OCc2ccc(I)cc2)-c2cccn21 [Compound 575b, 9-((4-iodobenzyl)oxy)-10H-pyrrolizino[1,2-b]quinolin-10-one]",0.05 to 5 mM
2,"O=C1c2c(n(Cc3cccc(Cl)c3)c3cccc(Cl)c3c2=O)-c2cccn21 [Compound 478a, 8-Chloro-4-(3-chlorobenzyl)-9H-pyrrolizino[1,2-b]quinoline-9,10(4H)-dione]",0.05 to 5 mM
3,"O=C1c2c(n(Cc3cc(F)c(F)c(F)c3F)c3ccccc3c2=O)-c2cccn21 [Compound 587a, 4-(2,3,4,5-Tetrafluorobenzyl)-9H-pyrrolizino[1,2-b]quinoline-9,10(4H)-dione]",0.05 to 5 mM

# System: BHK-21 cells
# Test: Anti-fibrosis activity test: inhibition of BHK-21 cell proliferation (CCK-8)
# Assay type: cell-based
# Settings: Mesocricetus auratus, BHK-21, 48 h, 48 h, CCK-8
# Procedure, shortened: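 Proliferation of BHK-21 cells is measured by CCK-8 at 450 nm following 48 h compound exposure at several concentrations. Inhibition is expressed relative to blank control and IC50 is computed from it.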
row,Compound,IC50
1,"CCCOCCn1c2c(c(=O)c3ccccc31)C(=O)n1cccc1-2 [Compound 671a, 4-(2-Propoxyethyl)-9H-pyrrolizino[1,2-b]quinoline-9,10(4H)-dione]",0.05 to 5 mM
2,"O=C1c2c(nc3ccccc3c2OCCCN2CCNCC2)-c2cccn21 [Compound 669b, 9-(3-(piperazin-1-yl)propoxy)-10H-pyrrolizino[1,2-b]quinolin-10-one]",0.05 to 5 mM

# Same assay, conditions: Mesocricetus auratus, BHK-21, 48 h, CCK-8, 48 hours after administration
row,Compound,IC50
1,"O=C1c2c(nc3ccccc3c2OCc2ccc(I)cc2)-c2cccn21 [Compound 575b, 9-((4-iodobenzyl)oxy)-10H-pyrrolizino[1,2-b]quinolin-10-one]",0.05 to 5 mM
2,"O=C1c2c(n(Cc3cccc(Cl)c3)c3cccc(Cl)c3c2=O)-c2cccn21 [Compound 478a, 8-Chloro-4-(3-chlorobenzyl)-9H-pyrrolizino[1,2-b]quinoline-9,10(4H)-dione]",0.05 to 5 mM
3,"O=C1c2c(n(Cc3cc(F)c(F)c(F)c3F)c3ccccc3c2=O)-c2cccn21 [Compound 587a, 4-(2,3,4,5-Tetrafluorobenzyl)-9H-pyrrolizino[1,2-b]quinoline-9,10(4H)-dione]",0.05 to 5 mM

# System: NF-κB
# Test: Immunological activity test: inhibition of NF-κB activity
# Assay type: cell-based
# Settings: initial concentration of 30 μM; a/b isomers given as first/second symbol; read-out: IC50 (μM), inhibitory activity against NF-κB
# Procedure, shortened: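 Compounds were first screened for inhibition of NF-κB activity at 30 μM, with parthenolide as the positive control. IC50 values were then determined for the compounds by further analysis of the assay data.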
row,Compound,IC50
1,"O=C1c2c(nc3ccccc3c2OCc2ccc(I)cc2)-c2cccn21 [Compound 575b, 9-((4-iodobenzyl)oxy)-10H-pyrrolizino[1,2-b]quinolin-10-one]",1 to 10 µM
2,"O=C1c2c(n(Cc3cccc(Cl)c3)c3cccc(Cl)c3c2=O)-c2cccn21 [Compound 478a, 8-Chloro-4-(3-chlorobenzyl)-9H-pyrrolizino[1,2-b]quinoline-9,10(4H)-dione]",10 to 50 µM
3,"O=C1c2c(n(Cc3cc(F)c(F)c(F)c3F)c3ccccc3c2=O)-c2cccn21 [Compound 587a, 4-(2,3,4,5-Tetrafluorobenzyl)-9H-pyrrolizino[1,2-b]quinoline-9,10(4H)-dione]",1 to 10 µM
4,"CCCOCCn1c2c(c(=O)c3ccccc31)C(=O)n1cccc1-2 [Compound 671a, 4-(2-Propoxyethyl)-9H-pyrrolizino[1,2-b]quinoline-9,10(4H)-dione]",1 to 10 µM
5,"O=C1c2c(nc3ccccc3c2OCCCN2CCNCC2)-c2cccn21 [Compound 669b, 9-(3-(piperazin-1-yl)propoxy)-10H-pyrrolizino[1,2-b]quinolin-10-one]",1 to 10 µM

# System: human fibrosarcoma cells HT-1080
# Test: Anti-fibrosis activity test: inhibition of proliferation of human fibrosarcoma cells HT-1080 (CCK-8)
# Assay type: cell-based
# Settings: Homo sapiens, HT-1080, 48 h, HT-1080 cells, 48 h, CCK-8
# Procedure, shortened: as §1
row,Compound,IC50
1,"CCCOCCn1c2c(c(=O)c3ccccc31)C(=O)n1cccc1-2 [Compound 671a, 4-(2-Propoxyethyl)-9H-pyrrolizino[1,2-b]quinoline-9,10(4H)-dione]",0.05 to 5 mM
2,"O=C1c2c(nc3ccccc3c2OCCCN2CCNCC2)-c2cccn21 [Compound 669b, 9-(3-(piperazin-1-yl)propoxy)-10H-pyrrolizino[1,2-b]quinolin-10-one]",0.05 to 5 mM

# Same assay, conditions: Homo sapiens, HT-1080, 48 h, human fibrosarcoma cells HT-1080, CCK-8, 48 hours
row,Compound,IC50
1,"O=C1c2c(nc3ccccc3c2OCc2ccc(I)cc2)-c2cccn21 [Compound 575b, 9-((4-iodobenzyl)oxy)-10H-pyrrolizino[1,2-b]quinolin-10-one]",0.05 to 5 mM
2,"O=C1c2c(n(Cc3cccc(Cl)c3)c3cccc(Cl)c3c2=O)-c2cccn21 [Compound 478a, 8-Chloro-4-(3-chlorobenzyl)-9H-pyrrolizino[1,2-b]quinoline-9,10(4H)-dione]",0.05 to 5 mM
3,"O=C1c2c(n(Cc3cc(F)c(F)c(F)c3F)c3ccccc3c2=O)-c2cccn21 [Compound 587a, 4-(2,3,4,5-Tetrafluorobenzyl)-9H-pyrrolizino[1,2-b]quinoline-9,10(4H)-dione]",0.05 to 5 mM

# System: human dermal fibroblasts CCC-ESF-1
# Test: Anti-fibrosis activity test: inhibition of proliferation of human dermal fibroblasts CCC-ESF-1 (CCK-8)
# Assay type: cell-based
# Settings: Fibroblast; human dermal fibroblasts CCC-ESF-1, CCK-8, 48 hours
# Procedure, shortened: as §1
row,Compound,IC50
1,"O=C1c2c(nc3ccccc3c2OCc2ccc(I)cc2)-c2cccn21 [Compound 575b, 9-((4-iodobenzyl)oxy)-10H-pyrrolizino[1,2-b]quinolin-10-one]",0.05 to 5 mM
2,"O=C1c2c(n(Cc3cccc(Cl)c3)c3cccc(Cl)c3c2=O)-c2cccn21 [Compound 478a, 8-Chloro-4-(3-chlorobenzyl)-9H-pyrrolizino[1,2-b]quinoline-9,10(4H)-dione]",0.05 to 5 mM
3,"O=C1c2c(n(Cc3cc(F)c(F)c(F)c3F)c3ccccc3c2=O)-c2cccn21 [Compound 587a, 4-(2,3,4,5-Tetrafluorobenzyl)-9H-pyrrolizino[1,2-b]quinoline-9,10(4H)-dione]",0.05 to 5 mM

# Same assay, conditions: Homo sapiens, Fibroblast; CCC-ESF-1 cells, 48 h, CCK-8
row,Compound,IC50
1,"CCCOCCn1c2c(c(=O)c3ccccc31)C(=O)n1cccc1-2 [Compound 671a, 4-(2-Propoxyethyl)-9H-pyrrolizino[1,2-b]quinoline-9,10(4H)-dione]",0.05 to 5 mM
2,"O=C1c2c(nc3ccccc3c2OCCCN2CCNCC2)-c2cccn21 [Compound 669b, 9-(3-(piperazin-1-yl)propoxy)-10H-pyrrolizino[1,2-b]quinolin-10-one]",0.05 to 5 mM

# System: human hepatic stellate cells LX-2
# Test: Anti-fibrosis activity test: inhibition of proliferation of human hepatic stellate cells LX-2 (CCK-8)
# Assay type: cell-based
# Settings: Homo sapiens, 48 h, human hepatic stellate cells LX-2, CCK-8, 48 hours
# Procedure, shortened: as §1
row,Compound,IC50
1,"O=C1c2c(nc3ccccc3c2OCc2ccc(I)cc2)-c2cccn21 [Compound 575b, 9-((4-iodobenzyl)oxy)-10H-pyrrolizino[1,2-b]quinolin-10-one]",0.05 to 5 mM
2,"O=C1c2c(n(Cc3cccc(Cl)c3)c3cccc(Cl)c3c2=O)-c2cccn21 [Compound 478a, 8-Chloro-4-(3-chlorobenzyl)-9H-pyrrolizino[1,2-b]quinoline-9,10(4H)-dione]",0.05 to 5 mM
3,"O=C1c2c(n(Cc3cc(F)c(F)c(F)c3F)c3ccccc3c2=O)-c2cccn21 [Compound 587a, 4-(2,3,4,5-Tetrafluorobenzyl)-9H-pyrrolizino[1,2-b]quinoline-9,10(4H)-dione]",0.05 to 5 mM

# Same assay, conditions: Homo sapiens, LX-2, 48 h, LX-2 cells, 48 h, CCK-8
row,Compound,IC50
1,"CCCOCCn1c2c(c(=O)c3ccccc31)C(=O)n1cccc1-2 [Compound 671a, 4-(2-Propoxyethyl)-9H-pyrrolizino[1,2-b]quinoline-9,10(4H)-dione]",0.05 to 5 mM
2,"O=C1c2c(nc3ccccc3c2OCCCN2CCNCC2)-c2cccn21 [Compound 669b, 9-(3-(piperazin-1-yl)propoxy)-10H-pyrrolizino[1,2-b]quinolin-10-one]",0.05 to 5 mM

# System: human embryonic lung fibroblast IMR-90
# Test: Anti-fibrosis activity test: inhibition of proliferation of human embryonic lung fibroblast IMR-90 (CCK-8)
# Assay type: cell-based
# Settings: Homo sapiens; IMR-90 cells, 48 h, CCK-8
# Procedure, shortened: as §1
row,Compound,IC50
1,"CCCOCCn1c2c(c(=O)c3ccccc31)C(=O)n1cccc1-2 [Compound 671a, 4-(2-Propoxyethyl)-9H-pyrrolizino[1,2-b]quinoline-9,10(4H)-dione]",0.05 to 5 mM
2,"O=C1c2c(nc3ccccc3c2OCCCN2CCNCC2)-c2cccn21 [Compound 669b, 9-(3-(piperazin-1-yl)propoxy)-10H-pyrrolizino[1,2-b]quinolin-10-one]",0.05 to 5 mM

# Same assay, conditions: human embryonic lung fibroblast IMR-90, CCK-8, 48 hours
row,Compound,IC50
1,"O=C1c2c(nc3ccccc3c2OCc2ccc(I)cc2)-c2cccn21 [Compound 575b, 9-((4-iodobenzyl)oxy)-10H-pyrrolizino[1,2-b]quinolin-10-one]",0.05 to 5 mM
2,"O=C1c2c(n(Cc3cccc(Cl)c3)c3cccc(Cl)c3c2=O)-c2cccn21 [Compound 478a, 8-Chloro-4-(3-chlorobenzyl)-9H-pyrrolizino[1,2-b]quinoline-9,10(4H)-dione]",0.05 to 5 mM
3,"O=C1c2c(n(Cc3cc(F)c(F)c(F)c3F)c3ccccc3c2=O)-c2cccn21 [Compound 587a, 4-(2,3,4,5-Tetrafluorobenzyl)-9H-pyrrolizino[1,2-b]quinoline-9,10(4H)-dione]",0.05 to 5 mM

# System: human lung fibroblasts HFL1
# Test: Anti-fibrosis activity test: inhibition of proliferation of human lung fibroblasts HFL1 (CCK-8)
# Assay type: cell-based
# Settings: Homo sapiens, HFL1, 48 h, HFL1 cells, 48 h, CCK-8
# Procedure, shortened: as §1
row,Compound,IC50
1,"CCCOCCn1c2c(c(=O)c3ccccc31)C(=O)n1cccc1-2 [Compound 671a, 4-(2-Propoxyethyl)-9H-pyrrolizino[1,2-b]quinoline-9,10(4H)-dione]",0.05 to 5 mM
2,"O=C1c2c(nc3ccccc3c2OCCCN2CCNCC2)-c2cccn21 [Compound 669b, 9-(3-(piperazin-1-yl)propoxy)-10H-pyrrolizino[1,2-b]quinolin-10-one]",0.05 to 5 mM

# Same assay, conditions: Homo sapiens, HFL1, 48 h, human lung fibroblasts HFL1, CCK-8, 48 hours
row,Compound,IC50
1,"O=C1c2c(nc3ccccc3c2OCc2ccc(I)cc2)-c2cccn21 [Compound 575b, 9-((4-iodobenzyl)oxy)-10H-pyrrolizino[1,2-b]quinolin-10-one]",0.05 to 5 mM
2,"O=C1c2c(n(Cc3cccc(Cl)c3)c3cccc(Cl)c3c2=O)-c2cccn21 [Compound 478a, 8-Chloro-4-(3-chlorobenzyl)-9H-pyrrolizino[1,2-b]quinoline-9,10(4H)-dione]",0.05 to 5 mM
3,"O=C1c2c(n(Cc3cc(F)c(F)c(F)c3F)c3ccccc3c2=O)-c2cccn21 [Compound 587a, 4-(2,3,4,5-Tetrafluorobenzyl)-9H-pyrrolizino[1,2-b]quinoline-9,10(4H)-dione]",0.05 to 5 mM

# System: mouse macrophages (RAW264.7)
# Test: Lipopolysaccharide-induced NO secretion in macrophages (Griess)
# Assay type: cell-based
# Settings: Mus musculus, RAW264.7, 24 h, RAW264.7, LPS 1 μg/ml, a/b isomers given as first/second symbol, read-out: IC50 (μM), inhibition of lipopolysaccharide-induced NO secretion in macrophages
# Procedure, shortened: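 RAW264.7 macrophages in DMEM with 10% FBS received test samples at several concentrations and were stimulated with 1 μg/ml LPS for 24 h. NO in the supernatant was measured with the Griess reagent at 548 nm, […].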
row,Compound,IC50
1,"O=C1c2c(nc3ccccc3c2OCc2ccc(I)cc2)-c2cccn21 [Compound 575b, 9-((4-iodobenzyl)oxy)-10H-pyrrolizino[1,2-b]quinolin-10-one]",1 to 10 µM
2,"O=C1c2c(n(Cc3cccc(Cl)c3)c3cccc(Cl)c3c2=O)-c2cccn21 [Compound 478a, 8-Chloro-4-(3-chlorobenzyl)-9H-pyrrolizino[1,2-b]quinoline-9,10(4H)-dione]",0.1 to 1 µM
3,"O=C1c2c(n(Cc3cc(F)c(F)c(F)c3F)c3ccccc3c2=O)-c2cccn21 [Compound 587a, 4-(2,3,4,5-Tetrafluorobenzyl)-9H-pyrrolizino[1,2-b]quinoline-9,10(4H)-dione]",1 to 10 µM
4,"CCCOCCn1c2c(c(=O)c3ccccc31)C(=O)n1cccc1-2 [Compound 671a, 4-(2-Propoxyethyl)-9H-pyrrolizino[1,2-b]quinoline-9,10(4H)-dione]",1 to 10 µM
5,"O=C1c2c(nc3ccccc3c2OCCCN2CCNCC2)-c2cccn21 [Compound 669b, 9-(3-(piperazin-1-yl)propoxy)-10H-pyrrolizino[1,2-b]quinolin-10-one]",1 to 10 µM
